The values that follow come from patent publication US6890921B1, “Arylsubstituted piperazines useful in the treatment of benign prostatic hyperplasia” (Ortho-McNeil Pharmaceutical, Inc., priority 1997, dated 2005).

Usually IC50 stands for the concentration that inhibits the measured activity by half.

Assay [1] concerns the target T1, HEK 293s cells expressing human α1a-AR (Homo sapiens, UniProt P35348).
T1 construct: expressed in transfected cells
T1 sequence (P35348 1-466): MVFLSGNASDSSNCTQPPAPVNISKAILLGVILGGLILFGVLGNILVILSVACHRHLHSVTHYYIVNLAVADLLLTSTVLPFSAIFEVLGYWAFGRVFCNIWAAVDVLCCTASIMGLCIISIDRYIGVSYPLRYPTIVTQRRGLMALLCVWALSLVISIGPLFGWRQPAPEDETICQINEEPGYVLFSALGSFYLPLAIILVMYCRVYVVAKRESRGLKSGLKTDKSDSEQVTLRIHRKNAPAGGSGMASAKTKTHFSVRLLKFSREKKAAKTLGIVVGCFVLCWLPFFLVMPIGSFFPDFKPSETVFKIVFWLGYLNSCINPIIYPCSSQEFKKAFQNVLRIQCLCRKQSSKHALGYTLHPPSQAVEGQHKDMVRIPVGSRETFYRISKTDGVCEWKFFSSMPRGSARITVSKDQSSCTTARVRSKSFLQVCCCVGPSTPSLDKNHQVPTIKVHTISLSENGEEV
Briefly: Antagonism of norepinephrine-induced mobilization of cytosolic calcium (Fluo-3, FLIPR). Type of assay: cell-based. Conditions: norepinephrine 10 uM, read-out: IC50 for inhibition of the mobilization of cytosolic calcium. The source says:
Binding of an agonist to α1-ARs causes the activation of PLC through G-protein coupled mechanisms (Minneman and Esbenshade, 1994). PLC catalyzes the hydrolysis of phosphatidyl inositol 4,5-bisphosphate (PIP2) generating two second messenger molecules, inositol 1,4,5-triphosphate (IP3) and diacylglycerol (DAG) and ultimately resulting in mobilization of intracellular calcium stores.
Preparation of stable cell lines expressing each receptor subtype: The alpha 1 adrenergic receptor subtypes (a, b, d) in the pcDNA3 vector were transfected into HEK 293s (human embryonic kidney) cells to form stable receptor-expressing cell lines. Transfection was performed using DMRIE-C (GibcoBRL) cationic lipid reagent mixed with 2-3 ug of DNA and reduced serum OPTI-MEM 1 medium (GibcoBRL). Cells in 100 mm tissue culture plates were overlayed with the lipid-DNA complex and incubated at 37° C., 5% CO2 for 5-6 hours. Serum-containing growth medium was then added and cells were incubated for an additional 48 hours. […] Positive cultures were subsequently analyzed by the calcium mobilization assay.
HEK 293s cells expressing human α1a-AR were lifted with trypsin and washed once with HBSS. […] Afterward, the agonist was added and fluorescent signal was monitored for 2-3 minutes using FLIPR (Molecular Devices, USA).

The subject of assay [2] is rat aorta tissue (α1b-AR and α1d-AR). Briefly: Norepinephrine-induced contractile response of rat aorta tissue. The following applies: rat aortic rings, 37° C., read-out: IC50 for inhibition of contractile response in aortic tissue. The source says: (§1) The contractile responses of rat prostatic tissue and rat aorta tissues were examined in the presence and absence of antagonist compounds. As an indication of the selectivity of antagonism, test compound effects on vascular smooth muscle contractility (α1b-AR and α1d-AR) were compared to the effects on prostatic smooth muscle (α1a-AR). Strips of prostatic tissue and aortic rings were obtained from Long Evans derived male rats weighing 275 grams and sacrificed by cervical dislocation. The prostate tissue was placed under 1 gram tension in a 10 ml bath containing phosphate buffered saline pH 7.4 at 32° C. and isometric tension was measured with force transducers. The aortic tissue was placed under 2 grams tension in a 10 ml bath containing phosphate buffered saline pH 7.4 at 37° C. The ability of test compound to reduce the norepinephrine-induced contractile response by 50% (IC50) was determined.

Assay [3] addresses T2, α1b-AR (Homo sapiens, UniProt P35368).
T2 construct: expressed in transfected cells; host or cells: COS cells (transient, DEAE-dextran), membranes
T2 sequence (P35368 1-520): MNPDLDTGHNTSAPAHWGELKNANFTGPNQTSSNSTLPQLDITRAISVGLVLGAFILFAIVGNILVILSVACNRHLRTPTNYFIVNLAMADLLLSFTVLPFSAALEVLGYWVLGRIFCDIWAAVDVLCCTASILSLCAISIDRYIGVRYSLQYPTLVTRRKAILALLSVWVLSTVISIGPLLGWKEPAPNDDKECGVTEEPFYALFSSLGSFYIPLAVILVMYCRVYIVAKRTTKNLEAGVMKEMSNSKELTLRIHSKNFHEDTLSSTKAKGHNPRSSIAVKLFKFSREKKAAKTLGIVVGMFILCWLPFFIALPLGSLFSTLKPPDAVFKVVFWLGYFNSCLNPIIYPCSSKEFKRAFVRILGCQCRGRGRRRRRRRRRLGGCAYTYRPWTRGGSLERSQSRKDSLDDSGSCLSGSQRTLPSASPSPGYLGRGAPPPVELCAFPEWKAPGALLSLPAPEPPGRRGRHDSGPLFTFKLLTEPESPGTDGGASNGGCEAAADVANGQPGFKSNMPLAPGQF
The assay can be described thus: Radioligand ([125I]-HEAT) receptor binding assay, COS cell membranes expressing α1b-AR. The following applies: [125I]-HEAT 50 pM. The source says:
(§2) The DNA sequences of the three cloned human α1-AR subtypes have been published. […] We used published DNA sequence information to design primers for use in RT-PCR amplification of each subtype to obtain cloned cDNAs. Human poly A+ RNA was obtained from commercially available sources and included hippocampus and prostate samples, sources which have been cited in the literature. For the primary screen a radio ligand binding assay was used which employed membrane preparations from cells expressing the individual cloned receptor cDNAs. Radiolabeled ligands with binding activity on all three subtypes (non-selective) are commercially available ([125I]-HEAT, [3H]-prazosin).
(§3) Each α1 receptor subtype was cloned from poly A+ RNA by the standard method of reverse transcription-polymerase chain reaction (RT-PCR). The following sources of polyA+ RNA were used for the cloning of the α1 receptor subtypes: α1a-AR, human hippocampus and prostate, α1b-AR, human hippocampus, α1d-AR, human hippocampus. The resulting cDNAs were cloned into the pcDNA3 mammalian expression vector (Invitrogen Corp., San Diego Calif.). Each DNA was sequenced for verification and to detect any possible mutations introduced during the amplification process. Any deviation in sequence from the published consensus for each receptor subtype was corrected by site-directed mutagenesis.
(§4) The three α1-AR subtypes (a, b, d) were transfected into COS cells using a standard DEAE-dextran procedure with a chloroquine shock. In this procedure, each tissue culture dish (100 mm) was inoculated with 3.5×10^6 cells and transfected with 10 μg of DNA. Approximately 72 hours post-transfection, the cells were harvested and COS membranes were prepared. Transfected COS cells from 25 plates (100 mm) were scraped and suspended in 15 mL of TE buffer (50 mM Tris-HCl, 5 mM EDTA, pH7.4). The suspension was disrupted with a homogenizer. It was then centrifuged at 1000×g for 10 minutes at 4° C. The supernatant was centrifuged at 34,500×g for 20 minutes at 4° C. The pellet was resuspended in 5 mL TNE buffer (50 mM Tris-HCl, 5 mM EDTA, 150 mM NaCl, pH7.4). The resulting membrane preparation was aliquoted and stored at −70° C. The protein concentration was determined following membrane solubilization with TritonX-100.
(§5) The ability of each compound to bind to each of the α1-AR subtypes was assessed in a receptor binding assay. [125I]-HEAT, a non-selective α1-AR ligand, was used as the radiolabeled ligand. Each well of a 96-well plate received: 140 μL TNE, 25 μL [125I]-HEAT diluted in TNE (50,000 cpm; final concentration 50 pM), 10 μL test compound diluted in DMSO (final concentration 1 pM-[…]), […] COS cell membrane preparation expressing one of the three α1-AR subtypes (0.05-0.2 mg membrane protein). The plate was incubated for 1 hour at room temperature and the reaction mixtures were filtered through a Packard GF/C Unifilter filter plate. The filter plate was dried for 1 hour in a vacuum oven. Scintillation fluid ([…]) was added to each well, and the filter plate was counted in a Packard Topcount scintillation counter. Data was analyzed using GraphPad Prism software.
(§6) Tables A & B list the IC50 values expressed in nanomolar concentration for select compounds of the invention in all receptor subtypes.

Assay [4] deals with T3, α1d-AR (Homo sapiens, UniProt P25100).
T3 construct: expressed in transfected cells; host or cells: COS cells (transient, DEAE-dextran), membranes
T3 sequence (P25100 1-572): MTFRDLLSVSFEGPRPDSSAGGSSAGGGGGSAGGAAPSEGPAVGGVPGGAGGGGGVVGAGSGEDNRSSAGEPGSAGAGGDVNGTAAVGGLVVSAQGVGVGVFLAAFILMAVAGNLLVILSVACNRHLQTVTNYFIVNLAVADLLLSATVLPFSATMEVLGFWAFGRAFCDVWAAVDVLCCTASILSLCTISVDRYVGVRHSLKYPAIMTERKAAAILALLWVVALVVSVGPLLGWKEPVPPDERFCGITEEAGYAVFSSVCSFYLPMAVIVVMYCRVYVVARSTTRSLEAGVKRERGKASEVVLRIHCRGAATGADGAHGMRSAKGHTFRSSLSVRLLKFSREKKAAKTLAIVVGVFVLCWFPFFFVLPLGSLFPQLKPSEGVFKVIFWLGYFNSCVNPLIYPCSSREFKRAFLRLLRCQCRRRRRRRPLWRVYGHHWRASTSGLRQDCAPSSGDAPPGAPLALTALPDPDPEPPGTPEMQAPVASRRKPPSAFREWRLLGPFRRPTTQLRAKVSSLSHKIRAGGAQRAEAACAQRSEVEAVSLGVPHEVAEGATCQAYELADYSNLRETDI
Briefly: Radioligand ([125I]-HEAT) receptor binding assay, COS cell membranes expressing α1d-AR. The following applies: [125I]-HEAT 50 pM.
Text: as §2, §3, §4, §5, §6

Assay [5] deals with T4, α1a-AR (Homo sapiens, UniProt P35348).
T4 construct: expressed in transfected cells; host or cells: COS cells (transient, DEAE-dextran), membranes
T4 sequence (P35348 1-466): T1 sequence (P35348 1-466)
The assay can be described thus: Radioligand ([125I]-HEAT) receptor binding assay, COS cell membranes expressing α1a-AR. The following applies: [125I]-HEAT 50 pM.
Text: as §2, §3, §4, §5, §6

Assay [6] relates to rat prostatic tissue (α1a-AR). Briefly: Norepinephrine-induced contractile response of rat prostatic tissue. Conditions: rat prostatic strips, 32° C., read-out: IC50 for inhibition of contractile response in prostate tissue.
Text: as §1

As to `CC(C)Oc1ccccc1N1CCN(CCNC(=O)CN2CCCCC2=O)CC1` [Cpd. 5], the IC50 in assay [1] turned out to be 99000 nM; in assay [2], 31900 nM; in assay [3] (Table A), 46100 nM; in assay [4] (Table A), 372 nM; in assay [5] (Table A), 8.7 nM; in assay [6], 1300 nM.

In the case of `CC(C)Oc1ccccc1N1CCN(CCN(C)C(=O)CN2CCCCC2=O)CC1` [Cpd. 6], the IC50 in assay [3] (Table A) was 764000 nM; in assay [4] (Table A) it was 650 nM; in assay [5] (Table A), 53 nM.

Consider `C=CCN(CCN1CCN(c2ccccc2OC(C)C)CC1)C(=O)CN1CCCCC1=O` [compound 7], for which the half-inhibitory concentration (IC50) in assay [3] (Table A) came out at 173000 nM; in assay [4] (Table A) it was 372 nM; in assay [5] (Table A), 103 nM.

As for `CC(C)Oc1ccccc1N1CCN(CCN(Cc2ccccc2)C(=O)CN2CCCCC2=O)CC1` [compound 9], the IC50 in assay [3] (Table A) was found to be 4230 nM; in assay [4] (Table A), 348 nM; in assay [5] (Table A), 88 nM.

In the case of `CCOC(=O)C1CCC(=O)N1CC(=O)NCCN1CCN(c2ccccc2OC(C)C)CC1` (stereo not drawn) [compound 10], the IC50 in assay [3] (Table A) was determined as 26300 nM; in assay [4] (Table A), 260 nM; in assay [5] (Table A) it was 20 nM.

On to `CC(C)Oc1ccccc1N1CCN(CCNC(=O)CN2CCCCCC2=O)CC1` [compound 11], for which the IC50 turned out to be 3540 nM in assay [3] (Table A), 505 nM in assay [4] (Table A) and 18 nM in assay [5] (Table A).

With `COc1ccccc1N1CCN(CCCNC(=O)CN2CCCCC2=O)CC1` [compound 12], the half-inhibitory concentration (IC50) in assay [3] (Table A) was found to be 109000 nM; in assay [4] (Table A) it was 30500 nM; in assay [5] (Table A) it was 98 nM.

Turning to `CC(C)Oc1ccccc1N1CCN(CCNC(=O)CN2C(=O)c3ccccc3C2=O)CC1` [compound 13], the IC50 stood at 1620 nM in assay [3] (Table B), 11 nM in assay [4] (Table B) and 104 nM in assay [5] (Table B).
